Reference: patent US12116358B2, “Substituted indoles and methods of use thereof” (EPIZYME, INC., priority 2018, dated 2024)
pIC50: −log10 of the molar value. Like-named read-outs stand apart in the source and are kept apart here.

Columns and labels:
H3K36me3 in A549 cells = assay: In-Cell Western (ICW) assay of SETD2 inhibitors (A549 assay); type: cell-based, human; conditions: A549 cells, read-out: SETD2 A549
In short: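 H3K36me3 In-Cell Western: cells exposed to compound for 3 days at 4,000 cells/well, 37° C. DRAQ5 (1:1000) marked cell number, with 700/800-channel Licor read-out.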

SETD2(1434-1711) = biological target: T1, SETD2(1434-1711) (Homo sapiens, UniProt Q9BYW2); assay: SETD2 (1434-1711) assay; type: biochemical; conditions: read-out: SETD2 (1434-1711)
T1 construct: SETD2 (1434-1711) Assay; catalogue N/A
T1 sequence (Q9BYW2 1434-1711): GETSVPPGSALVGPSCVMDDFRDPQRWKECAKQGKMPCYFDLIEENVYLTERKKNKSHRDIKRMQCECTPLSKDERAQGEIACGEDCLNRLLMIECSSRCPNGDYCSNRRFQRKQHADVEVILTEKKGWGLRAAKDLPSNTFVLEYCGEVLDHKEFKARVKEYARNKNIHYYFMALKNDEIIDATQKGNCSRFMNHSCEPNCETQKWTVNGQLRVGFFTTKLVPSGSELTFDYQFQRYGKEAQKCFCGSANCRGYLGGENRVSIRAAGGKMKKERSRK

Row | SMILES | pIC50 (H3K36me3 in A549 cells; Homo sapiens) | pIC50 (SETD2(1434-1711)) | pIC50 (H3K36me3 in A549 cells)
1 | Cc1ccc(F)c2cc(C(=O)Nc3cccc(N4CCOCC4CCO)c3)[nH]c12 (stereo not shown) [compound 331] | 5.80 | 6.22 | 
2 | Cc1ccc(F)c2cc(C(=O)Nc3cccc(N4CCCC4)c3)[nH]c12 [compound 332] |  | 6.70 | 5.80
3 | Cc1ccc(F)c2cc(C(=O)Nc3cc(Cl)cc(CN4CCOCC4)c3)[nH]c12 [compound 333] |  | 6.52 | 5.80
4 | Cc1cccnc1C(CCC(=O)N1CCOCC1)NC(=O)c1cc2c(F)ccc(C)c2[nH]1 (stereo not shown) [compound 334] | 5.80 | 6.15 | 
5 | Cc1ccc(F)c2cc(C(=O)Nc3cccc(N4CCCC(N(C)C)C4)c3)[nH]c12 (stereo not shown) [compound 335] | 5.80 | 7.10 | 
6 | Cc1ccc(F)c2cc(C(=O)Nc3cccc(N4CCC(C(C)C)CC4)c3)[nH]c12 [compound 336] |  | 6.40 | 5.80
7 | Cc1ccc(F)c2cc(C(=O)Nc3cccc(-c4c[nH]cn4)c3)[nH]c12 [compound 337] |  | 6.40 | 5.80
8 | Cc1ccc(F)c2cc(C(=O)Nc3cc(N4CCN(C)CC4)c4nccn4c3)[nH]c12 [compound 338] | 5.77 | 7.00 | 
9 | Cc1ccc(F)c2cc(C(=O)Nc3cc(Cl)cc([C@H]4CC[C@H](N(C)C)CC4)c3)[nH]c12 [compound 339] | 5.77 | 7.40 | 
10 | Cc1ccc(F)c2cc(C(=O)Nc3cccc(CCO)c3)[nH]c12 [compound 341] |  | 6.70 | 5.77
11 | Cc1ccc(F)c2cc(C(=O)Nc3cccc(N(C)C4CCN(C)C4)c3)[nH]c12 (stereo not shown) [compound 342] | 5.74 | 7.00 | 
12 | Cc1ccc(F)c2cc(C(=O)Nc3cccc(C4CCC(N(C)C)CC4)c3)[nH]c12 (stereo not shown) [compound 343] |  | 7.10 | 5.74
13 | Cc1ccc(F)c2cc(C(=O)Nc3cccc(N4CCN(C)CC4)n3)[nH]c12 [compound 344] |  | 6.70 | 5.74
14 | Cc1ccc(F)c2cc(C(=O)Nc3cc(C#N)cc(N4CCC(N(C)C)CC4)c3)[nH]c12 [compound 345] | 5.74 | 7.22 | 
15 | Cc1ccc(F)c2cc(C(=O)Nc3cccc(-c4ccc(CO)cc4)c3)[nH]c12 [compound 346] |  | 7.00 | 5.74
16 | Cc1ccc(F)c2cc(C(=O)Nc3cccc(N4CCC(N5CCC(N)CC5)C4)c3)[nH]c12 (stereo not shown) [compound 347] |  | 8.52 | 5.72
17 | Cc1ccc(F)c2cc(C(=O)Nc3cccc(N4CC5CC4CN5C)c3)[nH]c12 (stereo not shown) [compound 348] |  | 7.15 | 5.72
18 | Cc1ccc(F)c2cc(C(=O)Nc3cc(N4CCN(C)CC4)c4ncccc4c3)[nH]c12 [compound 350] | < 5.70 | 7.10 | 
19 | Cc1ccc(F)c2cc(C(=O)Nc3cccc(N(C)C4CCN(C)CC4)c3)[nH]c12 [compound 351] |  | 7.05 | < 5.70
20 | Cc1ccc(F)c2cc(C(=O)Nc3cccc(CC4CCCN(C)C4)c3)[nH]c12 (stereo not shown) [compound 352] | < 5.70 | 7.00 | 
21 | Cc1ccc(F)c2cc(C(=O)Nc3cc(F)cc([C@H]4CC[C@H](N5CCOCC5)CC4)c3)[nH]c12 [compound 353] |  | 7.00 | < 5.70

Row | SMILES | pIC50 (H3K36me3 in A549 cells; Homo sapiens) | pIC50 (SETD2(1434-1711)) | pIC50 (H3K36me3 in A549 cells)
22 | Cc1ccc(F)c2cc(C(=O)Nc3cccc(-c4cc5ccccn5n4)c3)[nH]c12 [compound 354] |  | 6.52 | < 5.70
23 | Cc1ccc(F)c2cc(C(=O)Nc3cc(N4CCN(C)CC4)n4ccnc4c3)[nH]c12 [compound 355] | < 5.70 | 6.30 | 
24 | Cc1cccnc1C(Cc1cn(CC2CC2)cn1)NC(=O)c1cc2c(F)ccc(C)c2[nH]1 (stereo not shown) [compound 356] | < 5.70 | 6.22 | 
25 | Cc1ccc(F)c2cc(C(=O)Nc3cccc(Cc4ncc[nH]4)c3)[nH]c12 [compound 357] |  | 6.15 | < 5.70
26 | Cc1cccnc1C(Cc1ccc(CN2CCOCC2)cc1)NC(=O)c1cc2c(F)ccc(C)c2[nH]1 (stereo not shown) [compound 358] |  | 6.05 | < 5.70
27 | CC(=O)N1CCN(C2CC(NC(=O)c3cc4c(F)ccc(C)c4[nH]3)CN(C)C2)CC1 (stereo not shown) [compound 360] |  | 5.92 | < 5.70
28 | Cc1ccc(F)c2cc(C(=O)NC3C(=O)NCCc4cccnc43)[nH]c12 (stereo not shown) [compound 361] | < 5.70 | 5.89 | 
29 | Cc1ccc(F)c2cc(C(=O)N[C@H]3CCC[C@H](N4CCCOCC4)C3)[nH]c12 [compound 362] | < 5.70 | 5.85 | 
30 | CC(=O)N1CCN(C2COCC(NC(=O)c3cc4c(F)ccc(C)c4[nH]3)C2)CC1 (stereo not shown) [compound 363] |  | 5.82 | < 5.70
31 | Cc1ccc(F)c2cc(C(=O)NC3CNCCc4ccccc43)[nH]c12 (stereo not shown) [compound 364] |  | 5.70 | < 5.70
32 | CC(=O)N1CC2CC(C1)N2c1cccc(NC(=O)c2cc3c(F)ccc(C)c3[nH]2)c1 [compound 365] |  | 5.59 | < 5.70
33 | CC(=O)N1CCC(N2CCCC(NC(=O)c3cc4c(F)ccc(C)c4[nH]3)C2)CC1 (stereo not shown) [compound 366] | < 5.70 | 5.52 | 
34 | Cc1ccc(F)c2cc(C(=O)NC3CCCN(C4CCN(C)C(=O)C4)C3)[nH]c12 (stereo not shown) [compound 367] |  | 5.38 | < 5.70
35 | Cc1ccc(F)c2cc(C(=O)NC3COCC(c4cncnc4)C3)[nH]c12 (stereo not shown) [compound 368] |  | 5.21 | < 5.70
36 | Cc1ccc(F)c2cc(C(=O)NC3CCCC(c4cncnc4)C3)[nH]c12 (stereo not shown) [compound 369] |  | 5.20 | < 5.70
37 | Cc1ccc(F)c2cc(C(=O)NC3CCCC(N4CCCN(C)C(=O)C4)C3)[nH]c12 (stereo not shown) [compound 370] |  | 5.17 | < 5.70
38 | Cc1ccc(F)c2cc(C(=O)Nc3ncc(C4CCN(C)CC4)[nH]3)[nH]c12 [compound 371] | < 5.70 | < 5.00 | 
39 | Cc1ccc(F)c2cc(C(=O)Nc3cccc(N4CCC(N(C)C)(C(F)(F)F)CC4)c3)[nH]c12 [compound 375] |  | < 5.00 | < 5.70
40 | CC(=O)N1CCN(C2CCC(NC(=O)c3cc4c(F)ccc(C)c4[nH]3)C2)CC1 (stereo not shown) [compound 376] |  | < 5.00 | < 5.70
41 | Cc1ccc(F)c2cc(C(=O)NC3CCCN(CC(=O)N(C)C)C3)[nH]c12 (stereo not shown) [compound 377] | < 5.70 | < 5.00 | 
42 | Cc1ccc(F)c2cc(C(=O)NC3CCCN(CCC(=O)N(C)C)C3)[nH]c12 (stereo not shown) [compound 378] |  | < 5.00 | < 5.70

Row | SMILES | pIC50 (H3K36me3 in A549 cells; Homo sapiens) | pIC50 (SETD2(1434-1711)) | pIC50 (H3K36me3 in A549 cells)
43 | Cc1ccc(F)c2cc(C(=O)NC3CCCC(c4cncnc4)C3)[nH]c12 (stereo not shown) [compound 379] |  | < 5.00 | < 5.70
44 | Cc1ccc(F)c2cc(C(=O)NC3CCCC(c4cncnc4)C3)[nH]c12 (stereo not shown) [compound 380] |  | < 5.00 | < 5.70
45 | CC(=O)N1CCN(C2CCC(NC(=O)c3cc4c(F)ccc(C)c4[nH]3)CC2)CC1 (stereo not shown) [compound 383] |  | < 5.00 | < 5.70
46 | CNC(=O)CN1CCCC(NC(=O)c2cc3c(F)ccc(C)c3[nH]2)C1 (stereo not shown) [compound 384] |  | < 5.00 | < 5.70
47 | CNC(=O)CCN1CCCC(NC(=O)c2cc3c(F)ccc(C)c3[nH]2)C1 (stereo not shown) [compound 386] |  | < 5.00 | < 5.70
48 | Cc1ccc(F)c2cc(C(=O)NC3CCCC(N4CCCN(C)C(=O)C4)C3)[nH]c12 (stereo not shown) [compound 387] |  | < 5.00 | < 5.70
49 | Cc1ccc(F)c2cc(C(=O)NC3CCCC(N4CCCOCC4)C3)[nH]c12 (stereo not shown) [compound 388] |  | < 5.00 | < 5.70
50 | CC(=O)N(C)CCCN1CCCC(NC(=O)c2cc3c(F)ccc(C)c3[nH]2)C1 (stereo not shown) [compound 389] |  | < 5.00 | < 5.70
51 | Cc1ccc(F)c2cc(C(=O)Nc3cccc4c(N5CCN(C)CC5)[nH]nc34)[nH]c12 [compound 391] | 5.70 | 6.70 | 
52 | Cc1ccc(F)c2cc(C(=O)Nc3cccc(-c4ccn(C)n4)c3)[nH]c12 [compound 394] | 5.68 | 6.70 | 
53 | Cc1ccc(F)c2cc(C(=O)Nc3cccc(C4(N)CC4)c3)[nH]c12 [compound 395] |  | 7.00 | 5.66
54 | Cc1cccc2cc(C(=O)Nc3cccc(N4CCN(C(=O)CN)CC4)c3)[nH]c12 [compound 396] |  | 6.52 | 5.64
55 | Cc1ccc(F)c2cc(C(=O)Nc3cccc(-c4cn[nH]c4N)c3)[nH]c12 [compound 397] | 5.62 | 6.30 | 
56 | CCc1cc(NC(=O)c2cc3c(F)ccc(C)c3[nH]2)cc(N2CCC(N(C)C)CC2)c1 [compound 398] |  | 7.15 | 5.62
57 | Cc1ccc(F)c2cc(C(=O)Nc3cccc(S(C)(=O)=O)c3)[nH]c12 [compound 399] |  | 5.74 | 5.62
58 | Cc1ccc(F)c2cc(C(=O)NC(c3nc4ccccn4c3C)C3CC3)[nH]c12 (stereo not shown) [compound 400] |  | 6.52 | 5.62
59 | Cc1ccc(F)c2cc(C(=O)Nc3cc(N4CCN(C)CC4)c4cnccc4c3)[nH]c12 [compound 401] |  | 7.52 | 5.62
60 | Cc1cc(-c2ccc(CN3CCOCC3)nc2)cnc1C(NC(=O)c1cc2cccc(C)c2[nH]1)C1CC1 (stereo not shown) [compound 402] |  | 6.52 | 5.60
61 | Cc1ccc(F)c2cc(C(=O)NC3CCCc4cnccc43)[nH]c12 (stereo not shown) [compound 403] |  | 5.60 | 5.57
62 | Cc1cc(-c2ncccn2)cnc1C(NC(=O)c1cc2cccc(C)c2[nH]1)C1CC1 (stereo not shown) [compound 404] | 5.55 | 6.52 | 
